Two compounds from ChEMBL document CHEMBL1155434, “Discovery of a new series of 5-HT1A receptor agonists” (Bioorg Med Chem Lett, 2010) can be followed below.

The target in test [1] is T1, 5-hydroxytryptamine receptor 1A (Homo sapiens) (UniProt P08908).
T1 sequence (whole entry): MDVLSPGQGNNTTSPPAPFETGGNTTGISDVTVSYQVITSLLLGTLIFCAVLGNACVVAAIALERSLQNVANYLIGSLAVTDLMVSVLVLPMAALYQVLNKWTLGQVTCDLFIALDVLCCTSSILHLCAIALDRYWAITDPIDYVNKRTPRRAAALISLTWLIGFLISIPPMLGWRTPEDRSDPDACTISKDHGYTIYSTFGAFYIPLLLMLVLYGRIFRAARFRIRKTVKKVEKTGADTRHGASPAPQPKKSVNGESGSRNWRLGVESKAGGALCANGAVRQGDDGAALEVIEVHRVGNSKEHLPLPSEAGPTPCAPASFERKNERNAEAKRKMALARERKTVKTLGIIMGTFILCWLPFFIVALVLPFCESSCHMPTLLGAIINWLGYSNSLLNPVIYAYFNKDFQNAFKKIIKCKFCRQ
Description: Agonist activity at human recombinant 5HT1A receptor expressed in human HeLa cells by [35S]GTPgammaS binding assay. The class given is functional, cell-based. (In general: GTPγS resists hydrolysis and so accumulates on activated G proteins.)

Test [2] addresses T1, 5-hydroxytryptamine receptor 1A (Homo sapiens). As to the kind of experiment: Agonist activity at human recombinant 5HT1A receptor expressed in human HeLa cells by [35S]GTPgammaS binding assay relative to serotonin. The class given is functional, cell-based.
The target of test [3] is T2, 5-hydroxytryptamine receptor 1A (Homo sapiens, UniProt P08908).
T2 sequence (P08908 whole entry): T1 sequence (whole entry)
As to the kind of experiment: Displacement of [3H]8-OH-DPAT from human 5-HT1A receptor expressed in human HeLa cells. The class given is cell-based.

The target of test [4] is T3, Alpha-1D adrenergic receptor (Homo sapiens, UniProt P25100).
T3 sequence (P25100 whole entry): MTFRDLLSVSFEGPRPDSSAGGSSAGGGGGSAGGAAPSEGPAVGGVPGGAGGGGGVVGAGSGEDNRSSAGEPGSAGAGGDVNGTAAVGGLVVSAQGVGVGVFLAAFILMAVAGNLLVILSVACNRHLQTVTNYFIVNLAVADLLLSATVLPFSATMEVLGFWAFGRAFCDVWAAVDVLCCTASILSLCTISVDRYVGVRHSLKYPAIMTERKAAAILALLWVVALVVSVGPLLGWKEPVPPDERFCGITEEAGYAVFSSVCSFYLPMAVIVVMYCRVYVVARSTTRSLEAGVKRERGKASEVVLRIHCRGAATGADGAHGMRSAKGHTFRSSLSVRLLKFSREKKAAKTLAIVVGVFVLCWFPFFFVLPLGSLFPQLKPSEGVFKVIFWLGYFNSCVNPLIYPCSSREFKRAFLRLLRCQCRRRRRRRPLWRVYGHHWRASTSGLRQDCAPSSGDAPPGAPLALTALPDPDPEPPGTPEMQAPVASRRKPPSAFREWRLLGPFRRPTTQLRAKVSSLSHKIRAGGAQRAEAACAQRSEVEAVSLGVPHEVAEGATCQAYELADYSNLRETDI
Description: Displacement of [3H]prazosin from human Alpha-1D adrenergic receptor expressed in CHO cells. The class given is cell-based. In general terms: Loss of bound radioactivity is the signal in a displacement assay; it reports binding, not function.

The target in test [5] is T4, Alpha-1A adrenergic receptor (Homo sapiens, UniProt P35348).
T4 sequence (P35348 whole entry): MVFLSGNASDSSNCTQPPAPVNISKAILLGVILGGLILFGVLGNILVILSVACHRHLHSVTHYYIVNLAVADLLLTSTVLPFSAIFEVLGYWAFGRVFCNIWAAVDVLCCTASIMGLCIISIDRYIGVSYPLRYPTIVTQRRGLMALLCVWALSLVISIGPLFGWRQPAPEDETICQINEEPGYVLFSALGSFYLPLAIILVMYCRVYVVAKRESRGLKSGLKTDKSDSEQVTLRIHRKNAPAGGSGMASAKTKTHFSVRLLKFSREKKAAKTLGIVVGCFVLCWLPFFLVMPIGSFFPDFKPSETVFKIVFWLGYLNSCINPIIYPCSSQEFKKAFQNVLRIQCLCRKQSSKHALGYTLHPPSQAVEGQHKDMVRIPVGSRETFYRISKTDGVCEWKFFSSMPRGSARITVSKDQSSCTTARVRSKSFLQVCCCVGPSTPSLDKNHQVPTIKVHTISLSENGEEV
Description: Displacement of [3H]prazosin from human alpha1A adrenergic receptor expressed in CHO cells. The class given is cell-based.

Another test deals with Thoracic aorta. As to the kind of experiment: Inhibition of noradrenaline-induced contraction in rat thoracic aorta. The class given is functional.
In the next test the test system is Vas deferens. As to the kind of experiment: Inhibition of noradrenaline-induced contraction in rat prostatic vas deferens. The class given is functional.
Test [6] concerns the target T5, Alpha-1B adrenergic receptor (Homo sapiens, UniProt P35368).
T5 sequence (P35368 whole entry): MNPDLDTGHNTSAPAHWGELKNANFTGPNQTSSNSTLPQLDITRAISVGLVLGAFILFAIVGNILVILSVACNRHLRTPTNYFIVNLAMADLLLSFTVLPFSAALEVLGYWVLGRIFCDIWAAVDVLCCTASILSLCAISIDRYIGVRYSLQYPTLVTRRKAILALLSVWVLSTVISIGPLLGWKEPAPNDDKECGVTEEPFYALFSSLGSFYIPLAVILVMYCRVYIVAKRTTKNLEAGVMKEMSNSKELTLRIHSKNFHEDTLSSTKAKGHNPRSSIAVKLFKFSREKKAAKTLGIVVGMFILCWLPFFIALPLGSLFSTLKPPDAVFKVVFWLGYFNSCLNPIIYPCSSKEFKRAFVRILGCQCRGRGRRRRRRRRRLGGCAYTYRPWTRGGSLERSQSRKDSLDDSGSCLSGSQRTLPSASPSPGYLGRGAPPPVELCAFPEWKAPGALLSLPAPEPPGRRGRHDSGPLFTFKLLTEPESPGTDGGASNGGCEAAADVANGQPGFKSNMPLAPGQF
As to the kind of experiment: Displacement of [3H]prazosin from human Alpha-1B adrenergic receptor expressed in CHO cells. The class given is cell-based.

For the next test, the species on record is Homo sapiens. Description: Selectivity ratio of pKi for human 5-HT1A receptor to pKi for human alpha1 adrenergic receptor.
The test system of the next test is Spleen. Description: Inhibition of noradrenaline-induced contraction in rat spleen. The class given is functional.

As for `COc1ccccc1OCCNCC1CSC(c2ccccc2)(c2ccccc2)O1` (racemic), in test [1], the pD2 amounted to 8.94. In [2], the maximum response (Emax) came out at 76%. The Ki in test [3] is 1.02 nM; in test [4], 6.61 nM; in [5] it was 20.9 nM; in test [6], 100 nM. Further, the pKb was 8.68 in the test on Thoracic aorta, 6.71 in the test with Vas deferens and 8.44 in the test with Spleen. Besides, the Ratio pKi in the test listed under Homo sapiens stood at 6.
As for `COc1ccccc1OCCNCC1CSC(c2ccccc2)(c2ccccc2)S1` (racemic), in test [1], the pD2 was 7.76. The Emax in [2] is 20%. The inhibitory constant (Ki) in test [3] was 0.129 nM; in test [4], 20.4 nM; in test [5], 35.5 nM; in test [6], 117 nM. The negative-log Kb (pKb) amounted to 7.5 with Thoracic aorta, 5.8 in the test on Vas deferens and 5.87 in the test on Spleen. Also, the Ratio pKi in the test filed under Homo sapiens stood at 158.

What is called Emax is the size of the effect at its maximum, as opposed to the concentration needed. A word on the Ki: it is a dissociation constant, usually derived from enzyme kinetics or from competition with a known ligand. What is called pKb is the negative decadic logarithm of the Kb, by convention in mol/L. A higher pKb goes with a small Kb.
